Source: patent US5440041A, “Acetal or ketal substituted xanthine compounds” (Cell Therapeutics, Inc., priority 1994, dated 1995)

Columns and labels:
[1] = tested on: certain cytokines; settings: U.S. Pat. No. 4,965,271 and U.S. Pat. No. 5,096,906; cited from earlier work
[2] = tested on: tumor necrosis factor (TNF); settings: PTX recipients; cited from earlier work
[3] = tested on: PAPH; assay: Inhibition of PAPH; assay type: biochemical; settings: specific activation pathway not involving PI; substrates with 1,2-diunsaturated and 1-alkyl,2-unsaturated subspecies
Description: One in vitro assay measures inhibition of the relevant enzymes lysophosphatidic acid acyltransferase (LPAAT) and phosphatidic acid phosphoryl hydrolase (PAPH). The assay involves incubating of target cells with a primary stimulus (e.g., a variety of cytokines, growth factors, oncogene products, putative therapeutic agents, irradiation, viral infection, toxins, bacterial infection and the products thereof, and any stimulus which, if not counteracted, has a deleterious effect on the target cell) in the presence or absence of an inventive compound at varying dosage levels. […] It is important to note that the assay method permits discrimination between various forms of PA and DAG so that those relevant to the pathway affected by the (R) or (S) compounds of the invention can be measured directly. […] Thus, the relevant unsaturated (non-arachidonic) PA and DAG subspecies may be detected. […]

[4] = tested on: polymorphonuclear leukocytes; settings: in response to a stimulator of chemotaxis; U.S. Pat. No. 4,636,507; cited from earlier work

## CC(=O)CCCCn1c(=O)c2c(ncn2C)n(C)c1=O [PTX, 1-(5-oxohexyl)-3,7-dimethylxanthine]
[1]
  effect on activity of certain cytokines to affect chemotaxis: inhibit activity of certain cytokines to affect chemotaxis
[2]
  TNF levels in normal volunteers: higher among PTX recipients
[3]
  effect on PAPH: blocks PAPH in a specific activation pathway
[4]
  effect on chemotaxis in polymorphonuclear leukocytes: stimulate chemotaxis
